Measured values: PMC8469417, “Is It Possible to Create Antimicrobial Peptides Based on the Amyloidogenic Sequence of Ribosomal S1 Protein of P. aeruginosa?” (International Journal of Molecular Sciences, 2021)
“Also recorded” adds a separate entry of the source. Where a name gives a salt, the structure may show the parent alone. Ends that are not written are not given here.

Legend:
[1] = system: P. aeruginosa strain PA103; assay: Inhibition zone assay on agar, strain PA103; assay type: cell-based, Pseudomonas aeruginosa; details: 24 h
Description: (§1) The R23R, R23L, R23R*, R23L* peptides and an antibiotic (gentamicin sulfate) were dissolved in 100% DMSO and solutions were prepared to test their activity.
The culture of the studied bacteria (P. aeruginosa strain PA103) was diluted 10 times in Luria-Bertani (LB) medium with non-solidified 0.75% agar (w/w) on sterile Petri dishes. […]

[2] = system: P. aeruginosa strain PA103; assay: Broth microdilution, strain PA103; assay type: cell-based, Pseudomonas aeruginosa; details: LB medium, 2% DMSO, 24 h, 37 °C, 600 nm
Description: The R23R, R23L, R23R*, R23L* peptides and an antibiotic (gentamicin sulfate) were dissolved in 100% DMSO and solutions were prepared with a final DMSO concentration of 2% (volume/volume) to test their activity.
Stationary culture of P. aeruginosa strain PA103 was diluted 100 times in fresh LB medium with peptides R23R and R23L or gentamicin sulfate (positive control) at various concentrations. After 24 h at 37 °C co-incubation bacterial cells with peptides, the optical densities of the cultures were measured at a wavelength of 600 nm in a plate reader iMac (BioRad Laboratories, Hercules, CA, USA). Each test was carryout in three replicates.
In the next experiment to prepare a stationary culture of P. aeruginosa, strain PA103, a colony was inoculated from a Petri dish in 1.5 mL of liquid LB medium and set to grow for 24 h at 37 °C and with stirring at 180 rpm. In the experiment, we used a culture with an initial concentration of ≈10^6–10^7 CFU/mL (10 μL), sterile LB medium (80 μL), peptides R23R* and R23L* diluted in 20% (volume/volume) DMSO or the antibiotic gentamicin sulfate as a positive control (10 μL). […] Optical density was measured in a plate reader iMac (BioRad Laboratories, Hercules, CA, USA) at a wavelength of 600 nm every hour from 0 h to 24 h. Each sample is measured in duplicate.

[3] = electron microscopy and fluorescence of thioflavin T; cited from earlier work
Description: In accordance with the strategy presented in Figure 1, we developed hybrid peptides that contained a cell penetrating peptide (CPP) (fragment of Tat-peptide) at the N-termini and an amyloidogenic sequence at the C-termini, which was predicted using bioinformatics tools. The two sites were linked by four glycines. Thus, the construction of the fusion peptide was as follows: “CPP”+”linker GGGG”+ “predicted amyloidogenic-fragment”. The LHITDMAWKR and ITDFGIFIGL sequences were used as amyloidogenic fragments.

[4] = system: P. aeruginosa strain ATCC 9027; assay: Antimicrobial test on agar, strain ATCC 9027; assay type: cell-based, Pseudomonas aeruginosa
Description: as §1
(§2) The P. aeruginosa strain ATCC 28753 was inoculated with a wire loop in 5 mL of LB medium and was incubated at 37 °C. After 12 h, plastic Petri dishes were poured with LB medium (about 5 mL) with 0.75% agar. Before pouring, 50 μL of an overnight culture of the test bacteria was added to each dish. The R23R, R23L, R23R*, and R23L* peptides were finally dissolved in 2% (volume/volume) DMSO and was tested with different concentrations with gentamicin sulfate as control of antimicrobial effect. The medium was dried and 10 μL of the prepared peptides were applied to it in accordance with the labeling. Then the dishes were placed in a thermostat and incubated for 12 h at a temperature of 37 °C. Antimicrobial activity was recorded by the presence of transparent zones of no growth around drops with peptide.
Studies with the P. aeruginosa strain ATCC 9027 were carried out similarly to the P. aeruginosa strain ATCC 28753. The exception was the amount of LB medium. Sterile plastic Petri dishes were filled with LB medium (about 25 mL) with 0.75% agar and 250 µL of an overnight culture of the test bacteria was added to each dish.

[5] = system: P. aeruginosa strain ATCC 28753; assay type: cell-based, Pseudomonas aeruginosa; details: 10 µL drops on LB 0.75% agar, 2% DMSO, 12 h, 37 °C
Description: as §1, §2

[6] = system: human diploid fibroblasts; assay: Cytotoxicity assay, human fibroblasts; assay type: cell-based; details: up to 8 µM, 24 h; resazurin assay, calcein-AM / propidium iodide staining, triplicate
Description: (§3) Cell viability was estimated as described previously by resazurin cell viability assay. Each assay was done in triplicate. All measurements were carried out on the control samples that were not treated with cytotoxic substances. We used human diploid fibroblasts and human breast duct carcinoma BT474 cells obtained from the American Type Cell Culture Collection (Manassas, Virginia, VA, USA). BT474 cells were cultured in DMEM medium (Sigma-Aldrich, St. Louis, MO, USA) supplemented with 10% fetal bovine serum (Gibco, Waltham, MA, USA), 40 μg/mL gentamicin sulfate (Sigma-Aldrich, St. Louis, MO, USA), at 37° C, under conditions of 5% content CO2 in the air. The analysis of living and dead cells was carried out using BD Accuri C6 flow cytometer (BD Bioscience, San Jose, CA, USA).

[7] = system: human breast duct carcinoma BT474 cells; assay: Cytotoxicity assay, BT474 cells; assay type: cell-based; details: up to 8 µM, 24 h; resazurin assay, calcein-AM / propidium iodide staining, triplicate
Description: as §3

Compound: CNC(C)C1CCC(N)C(OC2C(N)CC(N)C(OC3OCC(C)(O)C(NC)C3O)C2O)O1 (centres unmarked) [gentamicin sulfate]
- MIC ([1]; Pseudomonas aeruginosa, PA103, drops on LB 0.75% agar, 20% DMSO, zones of inhibition, read-out: minimum inhibitory concentration (MIC)): 170 µM
- Optical density ([2]; 174 µM): zero
- Optical density ([2]; 1740 µM): zero

Compound: ITDFGIFIGL [amyloidogenic fragment from the fifth domain of ribosomal S1 protein of P. aeruginosa]
- amyloid-like properties (in words) [3]: exhibited amyloid-like properties

Compound: RKKRRQRRRGG-Sar [R12-Sar, CPP fragment with GG-Sar, without amyloidogenic part]
- antimicrobial activity on agar (in words) ([1]; drops on LB agar, b51 states it for bacteria grown on agar in general): did not exhibit antimicrobial activity
- antibacterial properties on agar ([1]; peptide 6.56 µM): Non-AMP
- antibacterial properties on agar ([1]; peptide 65.6 µM): Non-AMP
- antibacterial properties on agar ([1]; peptide 656 µM): Non-AMP
- antibacterial properties on agar ([1]; peptide 6560 µM): Non-AMP
- antimicrobial activity on agar (in words) ([4]; drops on LB 0.75% agar, 3.75-3750 µM tested, zones of inhibition): did not exhibit antimicrobial activity
- antibacterial properties on agar ([4]; peptide 3.75 µM): Non-AMP
- antibacterial properties on agar ([4]; peptide 37.5 µM): Non-AMP
- antibacterial properties on agar ([4]; peptide 375 µM): Non-AMP
- antibacterial properties on agar ([4]; peptide 3750 µM): Non-AMP

Compound: RKKRRQRRRGGGGITDFGIFIGL [R23L]
- MIC [5]: about 300 µM
- cytotoxic effect / cell viability (in words) [6]: remained alive; also recorded: did not have a toxic effect
- cytotoxic effect / cell viability (in words) [7]: remained alive; also recorded: did not have a toxic effect

Compound: RKKRRQRRRGGGGLHITDMAWKR [R23R]
- MIC [5]: about 300 µM
- cytotoxic effect / cell viability (in words) [6]: remained alive; also recorded: did not have a toxic effect
- cytotoxic effect / cell viability (in words) [7]: remained alive; also recorded: did not have a toxic effect
